Converted amounts (≈) assume the structure as drawn.
Experiments:
L1210 cells = assay: Cytotoxic activity against L1210 cells; format: cell-based; conditions: Mus musculus; L1210 cells, 48 hours, 37° C.; read-out: ED50, cytotoxic activity against L1210
Experimental: To obtain L1210 cells in a logarithmic phase for cytotoxic activity test, in a 250 ml Erlenmeyer flask with a screw cap including Fisher medium warmed to 36° to 37° C. L1210 cells were adjusted to a concentration of 2-3×10^5 cells/ml and then cultured, before 24 hours from the beginning of experiment. Then, the culture solution thus obtained was suspended to prepare a L1210 cell suspension having a concentration of about 0.8-1.0×10^6 cells/ml. Test sample was dissoved in ethanol or dimethylsulfoxide in a certain concentration just before the experiment. 0.1 ml of the sample solution was diluted 10 times with 0.9 ml of a fresh medium. To each screw-capped test tube were added 100, 50, 25 μl, respectively, of the sample dilutions and then added 5 ml of the cell suspension (5×10^4 cells/ml) prepared above to use as the test group. To the test tubes for the control group (2√n: n=number of the samples), only 5 ml of the cell suspension was added. All test tubes were cultured for 48 hours in a CO2 incubator at 37° C. and then the number of cells was counted using a haemacytometer.
(§1) The ED50 value is defined as a concentration (μg/ml) of the sample which inhibits the growth of cancer cells by 50% of the control group and determined according to a method described in NIC's mannual (NIC=National Cancer Institue, U.S.A.). The growth rate Y(%) of cells in the presence of the test sample in each concentration was calculated according to the followign equation: […]
(§2) In the above equation, T means the average cell number per ml in the test group after incubation for 48 hours in the presence of the test samples in each concentration, C means the average cell number per ml in the control group after incubation for 48 hours, and Co means the average cell number per ml in the control group at the beginning of incubation. The Y(%) value at each concentration and log10 value of each concentration were obtained and the regression curve was constructed according to the following equation from those obtained values. In this case, when all the Y(%) value obtained at each concentration is greater than 55% or lower than 45%, the experiment was repeatedly conducted.
(§3) To construct the regression curve Y=A+BX the values A and B were obtained using the following equation. [formula]
(§4) In the above, the value N is the number of selected points which is greater than 2 and lower than, or identical with, the number of cencentration of the test sample, Xi is log(concentration) i, and Yi is the growth ratio at (concentration)i. The value of ED50 was obtained for those obtained slope and intercept.

K-562 cells = assay: Cytotoxic activity against K-562 cells; format: cell-based; conditions: Homo sapiens; K562 cells, 48 hours, 37° C.; read-out: ED50, cytotoxic activity against K562
Experimental: As in the test for the cytotoxic activity against L1210 cells, the test samples were dissoved in ethanol or dimethylsulfoxide in a certain concentration. 0.1 ml of the sample solution was mixed with 0.9 ml of a fresh medium to prepare the dilutions. To each two test tubes having a screw cap were added 100, 50, 25 μl, respectively, of the sample dilutions by means of a micropipet. To each test tube for the test group and the control group (2√n: n=number of the samples) was added 5 ml of the dilutions of HL-60 cells and K-562 cells which were cultured and activated before 24 hours from the beginning of experiment and then diluted in a concentration of 1×10^5 cells/mi. All test tubes were cultured for 48 hours in a CO2 incubator at 37° C. and then the number of cells was counted using a haemacytometer.
as §1, §2, §3, §4

A549 cancer cells = assay: Cytotoxic activity against A549 cancer cells (sulforhodamin B method); format: cell-based; conditions: Homo sapiens; A549 cells, SRB method, 48 hours; read-out: ED50, cytotoxic activity against A549
Experimental: The cytotoxic activity against A549 cancer cells was determined using a method for measuring sulforhodamin B (SRB), which was developed in the year 1989 by NIC for measuring anticancer activity of the drug in vitro. For the experiment, cells under subculturing were separated from the attached surface with trypsin-CDTA solution and then dispensed into a 24-well flat-bottom microplate (Falcon) so that the number of cells per well is 8×10^4 (A549). The microplate was incubated in a CO2 incubator for 24 hours to attach the dispensed cells to bottom. The medium was removed with aspirator. Then, 100 μl of the solution of the test compounds diluted in a log-dose of 6 kinds of concentration was added to each well containing cells, in a multiple of 3. The microplate was incubated for further 48 hours. In addition, the diluted solution of the test compounds above was filtered through a 0.22 μm filter, before addition to the cells, to keep the experiment under sterilized condition. The cells were incubated with the test compounds for 48 hours and then the medium was removed from each well. 100 μl of 10% trichloroacetic acid (TCA) was added to each well and then the plate was allowed to stand at 4° C. for one hour to fix the cells to the bottom of plate. After fixing the cells, the plate was washed 5 to 6 times with water to completely remove any remaining TCA solution and then dried at room temperature until water is no longer present. To the completely dried plate was added the dying solution of 0.4% SRB dissolved in 1% acetic acid in an amount of 250 μl per well to stain the cells for 30 minutes and then the plate was washed again 5 to 6 times with 1% acetic acid solution to remove the remaining SRB which is not bound to the cells. The stained cell plate was dried again at room temperature. Then, the dying solution was carefully dissolved in a certain amount of 10 mM Tris so that the O.D. value in the control group at 520 nm is 0.8-1.0 Å (optical density), and the optical density at 520nm was determined. The ED50 value was obtained from the determined optical density. To calculate the activity of the drug against cancer cells, the number of cells (Tz) at the beginning of the addition of drug, the number of cells (C) after incubation with the medium in the absence of drug for 48 hours and the number of cells (T) after incubation in the presence of drugs at each concentration for 48 hours were determined.
The anticancer activity of the test compounds was determined form the following equations. Specifically, in the […] the equation (T-Tz)/(C-Tz)×100 was used and in the case of Tz<T the equation (T-Tz)/Tz×100 was used. Then the IC50 value wich is the concentration of drug which inhibits the growth of cancer cells by 50% was calcualted from the above calculated values using a data regressive function of LOTUS programme and the cytotoxic activities of the test compounds were compared with each other.

S-180 sarcoma cells = assay: Animal experiment using Sarcoma S-180 cells (survival of mouse); format: in vivo, male ICR mouse; conditions: ip, S-180 ICR mouse, intraperitoneal, 7 to 8 injections; for responders at 10 µmol/kg / responders at 5 µmol/kg: 1200 h, read-out: Number of mouse survived for 50 days (converted); for responders at 10 µmol/kg / response vs control in vivo at 10 µmol/kg: daily dose 10 μmole (mg/kg/day given per compound); for response vs control in vivo at 10 µmol/kg / response vs control in vivo at 5 µmol/kg: read-out: T/C; for responders at 5 µmol/kg / response vs control in vivo at 5 µmol/kg: daily dose 5 μmole (mg/kg/day given per compound)
Experimental: In this experiment, healthy male ICR mouse weighing 20 to 25 g were used as test animal and were fed with water and feed without any restriction in the chamber controlled at the temperature of 23° to 24° C. As the feed, the antibiotic-free feed for mouse was used.
S-180 cells which were incubated for 7 days within abdominal cavity of ICR mouse were separated together with ascites. To the separated cells was added sterilized cold physiological saline and the mixture was centrifuged with 400×g for 2 minutes to separate the cell precipitate. The separated cell precipitate was suspended again in sterilized cold physiological saline and then centrifuged to remove the supernatant. Only S-180 cells were taken, excluding any red bllod cells incorporated therein, washed three times with the same method as above, and then suspended to obtain the cell suspension in concentration of 10^7 cells/ml by counting the number of cells with a haemacytometer. Each 0.1 ml of this cell suspension was transplanted in an abdominal cavity.
After 24 hours from the transplantation, mouse were divided so that each group contains 8 to 9 mouse. The test sample was dissolved in a predetermined amount of dimethylsulfoxide to prepare the stock solution which was stored at 4° C. 30 μl of the stock solution was taken and then mixed with 1.5 ml of physiological saline. 0.1 ml of this mixture was intraperitoneally injected to the test animal. To the control group, 2% dimethylsulfoxide-physiological saline solution was injected. Meanwhile, doxorubicin which is used as the comparative drug was dissolved in 2% dimethylsulfoxide-physiological saline solution and then injected in an amount of 0.5 mg(titer)/kg. The schedule for injection comprises a total of 7 to 8 injections in the manner that after the transplantation of cancer cells 0.1 ml of the test sample per a day is administered for 2 to 4 days followed by the rest for one day. The survival rate was calculated on the basis of the date on which all of one control group is died (approximately 18 to 20 days). The survival rate (T/C, %) was calculated by the following equation as proposed in NIC's protocol: [formula]

Compound | IC50 (L1210 cells) [µg/mL] | IC50 (K-562 cells) [µg/mL] | IC50 (A549 cancer cells) [µg/mL] | responders at 10 µmol/kg (S-180 sarcoma cells) [%] | response vs control in vivo at 10 µmol/kg (S-180 sarcoma cells) [%] | responders at 5 µmol/kg (S-180 sarcoma cells) [%] | response vs control in vivo at 5 µmol/kg (S-180 sarcoma cells) [%]
CCCCCC(=O)OC(CCC(C)C)C1=CC(=O)c2c(O)ccc(O)c2C1=O (centres unmarked) | 0.3 (≈ 0.772 µM) | 0.05 (≈ 0.129 µM) | 0.4 (≈ 1.03 µM) | 0 | 151 |  | 
CC(=O)OC(CCC(C)C)C1=CC(=O)c2c(O)ccc(O)c2C1=O (centres unmarked) [2-(1-acetoxy-4-methylpentyl)-5,8-dihydroxy-1,4-naphthoquinone] | 0.05 (≈ 0.15 µM) | 0.07 (≈ 0.211 µM) | 1.5 (≈ 4.51 µM) |  |  | 14.3 | 188
CCCCCCCCCC(OC(C)=O)C1=CC(=O)c2c(O)ccc(O)c2C1=O (centres unmarked) [2-(1-acetoxydecyl)-5,8-dihydroxy-1,4-naphthoquinone] | 0.4 (≈ 1.03 µM) | 0.1 (≈ 0.257 µM) | 0.3 (≈ 0.772 µM) | 14.3 | 197 |  | 
CCCCCC(OC(C)=O)C1=CC(=O)c2c(O)ccc(O)c2C1=O (centres unmarked) [2-(1-acetoxyhexyl)-5,8-dihydroxy-1,4-naphthoquinone] | 0.08 (≈ 0.241 µM) | 0.01 (≈ 0.0301 µM) | 0.7 (≈ 2.11 µM) |  |  | 25 | 150
CCCCCCCCCCCCC(OC(C)=O)C1=CC(=O)c2c(O)ccc(O)c2C1=O (centres unmarked) [2-(1-acetoxytridecyl)-5,8-dihydroxy-1,4-naphthoquinone] | 0.4 (≈ 0.929 µM) | 4.2 (≈ 9.76 µM) | 15.8 (≈ 36.7 µM) | 14.3 | 131 |  | 
CCOC(CCC(C)C)C1=CC(=O)c2c(O)ccc(O)c2C1=O (centres unmarked) [2-(1-ethoxy-4-methylpentyl)-5,8-dihydroxy-1,4-naphthoquinone] | 0.04 (≈ 0.126 µM) | 0.08 (≈ 0.251 µM) | 1.7 (≈ 5.34 µM) | 0 | 105 |  | 
CCCCCC(=O)OC(CCCCC)C1=CC(=O)c2c(O)ccc(O)c2C1=O (centres unmarked) [2-(1-hexanoyloxyhexyl)-5,8-dihydroxy-1,4-naphthoquinone] | 0.1 (≈ 0.257 µM) | 0.2 (≈ 0.515 µM) | 0.3 (≈ 0.772 µM) | 0 | 151 |  | 
CCCCCCCCCCCCC(O)C1=CC(=O)c2c(OC)ccc(OC)c2C1=O (centres unmarked) [2-(1-hydroxytridecyl)-5,8-dimethoxy-1,4-naphthoquinone] | 1.8 (≈ 4.32 µM) | 2.3 (≈ 5.52 µM) | 2.8 (≈ 6.72 µM) |  |  |  | 
COc1ccc(OC)c2c1C(=O)C=C(C(CCC(C)C)OC)C2=O (centres unmarked) [2-(1-methoxy-4-methylpentyl)-5,8-dimethoxy-1,4-naphthoquinone] | 0.2 (≈ 0.602 µM) | 2.1 (≈ 6.32 µM) | 5.6 (≈ 16.8 µM) |  |  |  | 
CCCCCCCCCC(OC(=O)CCCCCCC)C1=CC(=O)c2c(O)ccc(O)c2C1=O (centres unmarked) [2-(1-octanoyloxydecyl)-5,8-dihydroxy-1,4-naphthoquinone] | 0.9 (≈ 1.9 µM) | > 20 | > 20 |  |  |  | 
CCCCCOC(CCC(C)C)C1=CC(=O)c2c(O)ccc(O)c2C1=O (centres unmarked) [2-(1-pentyloxy-4-methylpentyl)-5,8-dihydroxy-1,4-naphthoquinone] | 0.3 (≈ 0.832 µM) | 0.2 (≈ 0.555 µM) | 1.3 (≈ 3.61 µM) |  |  |  | 
CCCCCOC(CCC(C)C)C1=CC(=O)c2c(OC)ccc(OC)c2C1=O (centres unmarked) [2-(1-pentyloxy-4-methylpentyl)-5,8-dimethoxy-1,4-naphthoquinone] | 2.6 (≈ 6.69 µM) | 3 (≈ 7.72 µM) | 7.8 (≈ 20.1 µM) |  |  |  | 
COc1ccc(OC)c2c1C(=O)C=C(C(CCC(C)C)OCCC(C)C)C2=O (centres unmarked) [2-[1-(3-methylbutoxy)-4-methylpentyl]-5,8-dimethoxy-1,4-naphthoquinone] | 2.5 (≈ 6.43 µM) | 2.3 (≈ 5.92 µM) | 3.3 (≈ 8.49 µM) |  |  |  | 
